# Laboratory results as given in article PMC4447944 (The Journal of Biological Chemistry, 2015).
# Key:
# hKIT(L576P) = biological target: T1, hKIT(L576P) (Homo sapiens, UniProt P10721, L576P); assay: KINOMEscan; assay type: binding
# T1 construct: purchased DiscoverX (KINOMEscan panel)
# hSgK110 = biological target: T2, hSgK110 (Homo sapiens, UniProt P0C264); assay: KINOMEscan; assay type: binding
# T2 construct: purchased DiscoverX (KINOMEscan platform)
# hMARK2 = biological target: T3, hMARK2 (Homo sapiens, UniProt Q7KZI7); assay: KINOMEscan; assay type: binding
# T3 construct: purchased DiscoverX
# hKIT(A829P) = biological target: T4, hKIT(A829P) (Homo sapiens, UniProt P10721, A829P); assay: KINOMEscan; assay type: binding
# T4 construct: purchased DiscoverX (KINOMEscan panel)
# hCAMKK1 = biological target: T5, hCAMKK1 (Homo sapiens, UniProt Q8N5S9); assay: KINOMEscan; assay type: binding
# T5 construct: purchased DiscoverX
# hFLT3(D835Y) = biological target: T6, hFLT3(D835Y) (Homo sapiens, UniProt P36888, D835Y); assay: KINOMEscan; assay type: binding
# T6 construct: purchased DiscoverX
# hH1 = hH1 (Homo sapiens, UniProt P35367); assay: Ca Mobilization Potentiation (Eurofins-CEREP); settings: @ 10 μM
# hHPK1 = biological target: T7, hHPK1 (Homo sapiens, UniProt Q92918); assay: KINOMEscan; assay type: binding
# T7 construct: purchased DiscoverX (KINOMEscan panel)
# hLXRα = biological target: T8, hLXRα (Homo sapiens, UniProt Q13133); assay: Nuclear hormone receptor assay (Eurofins-CEREP); settings: read-out: Relative IC50
# T8 construct: Eurofins-CEREP
# hSIK2 = biological target: T9, hSIK2 (Homo sapiens, UniProt Q9H0K1); assay: KINOMEscan; assay type: binding
# T9 construct: purchased DiscoverX (KINOMEscan platform)
# hHIPK3 = biological target: T10, hHIPK3 (Homo sapiens, UniProt Q9H422); assay: KINOMEscan; assay type: binding
# T10 construct: purchased DiscoverX
# hTAOK1 = biological target: T11, hTAOK1 (Homo sapiens, UniProt Q7L7X3); assay: KINOMEscan; assay type: binding
# T11 construct: purchased DiscoverX
# hLIMK2 = biological target: T12, hLIMK2 (Homo sapiens, UniProt P53671); assay: KINOMEscan; assay type: binding
# T12 construct: purchased DiscoverX (KINOMEscan platform)
# hCSNK1G1 = biological target: T13, hCSNK1G1 (Homo sapiens, UniProt Q9HCP0); assay: KINOMEscan; assay type: binding
# T13 construct: purchased DiscoverX (KINOMEscan platform)
# hCLK4 = biological target: T14, hCLK4 (Homo sapiens, UniProt Q9HAZ1); assay: KINOMEscan; assay type: binding
# T14 construct: purchased DiscoverX (KINOMEscan platform)
# hCSF1R-autoinhib = biological target: T15, hCSF1R-autoinhib (Homo sapiens, UniProt P07333); assay: KINOMEscan; assay type: binding; settings: read-out: Inhibition at the 20 μM dose
# T15 construct: purchased DiscoverX (KINOMEscan platform)
# hTYK2(JH1Dom.-catalytic) = biological target: T16, hTYK2(JH1Dom.-catalytic) (Homo sapiens, UniProt P29597); assay: KINOMEscan; assay type: binding
# T16 construct: hTYK2(JH1Dom.-catalytic); purchased DiscoverX
# hM3 = hM3 (Homo sapiens, UniProt P20309); assay: β-arrestin Antagonist (Eurofins-CEREP); settings: read-out: % Effect, Inhibition
# [1] = biological target: T17, hEGFR(L747-S752del, P753S) (Homo sapiens, UniProt P00533, DEL747-752/P753S); assay: KINOMEscan; assay type: binding
# T17 construct: purchased DiscoverX
# hABL1(pF317I) = biological target: T18, hABL1(pF317I) (Homo sapiens, UniProt P00519, F317I); assay: KINOMEscan; assay type: binding
# T18 construct: purchased DiscoverX (KINOMEscan platform)
# hIKK-beta = biological target: T19, hIKK-beta (Homo sapiens, UniProt O14920); assay: KINOMEscan; assay type: binding
# T19 construct: purchased DiscoverX (KINOMEscan panel)
# hCDKL5 = biological target: T20, hCDKL5 (Homo sapiens, UniProt O76039); assay: KINOMEscan; assay type: binding
# T20 construct: purchased DiscoverX
# hOPRm1 = hOPRm1 (Homo sapiens, UniProt P35372); assay: cAMP Agonist (Eurofins-CEREP); settings: @ 1 μM
# hERK5 = biological target: T21, hERK5 (Homo sapiens, UniProt Q13164); assay: KINOMEscan; assay type: binding
# T21 construct: purchased DiscoverX
# hMKNK1 = biological target: T22, hMKNK1 (Homo sapiens, UniProt Q9BUB5); assay: KINOMEscan; assay type: binding
# T22 construct: purchased DiscoverX
# hBTK = biological target: T23, hBTK (Homo sapiens, UniProt Q06187); assay: KINOMEscan; assay type: binding
# T23 construct: purchased DiscoverX
# hSGK = biological target: T24, hSGK (Homo sapiens, UniProt O00141); assay: KINOMEscan; assay type: binding
# T24 construct: purchased DiscoverX (KINOMEscan platform)
# hIGF1R = biological target: T25, hIGF1R (Homo sapiens, UniProt P08069); assay: KINOMEscan; assay type: binding
# T25 construct: purchased DiscoverX (KINOMEscan panel)
# hSIK = biological target: T26, hSIK (Homo sapiens, UniProt P57059); assay: KINOMEscan; assay type: binding
# T26 construct: purchased DiscoverX (KINOMEscan platform)
# hANKK1 = biological target: T27, hANKK1 (Homo sapiens, UniProt Q8NFD2); assay: KINOMEscan; assay type: binding
# T27 construct: purchased DiscoverX
# hMEK3 = biological target: T28, hMEK3 (Homo sapiens, UniProt P46734); assay: KINOMEscan; assay type: binding
# T28 construct: purchased DiscoverX
# hERK8 = biological target: T29, hERK8 (Homo sapiens, UniProt Q8TD08); assay: KINOMEscan; assay type: binding
# T29 construct: purchased DiscoverX
# hBRAF = biological target: T30, hBRAF (Homo sapiens, UniProt P15056); assay: KINOMEscan; assay type: binding
# T30 construct: purchased DiscoverX
# hBRSK2 = biological target: T31, hBRSK2 (Homo sapiens, UniProt Q8IWQ3); assay: KINOMEscan; assay type: binding
# T31 construct: purchased DiscoverX
# hERβ = biological target: T32, hERβ (Homo sapiens, UniProt Q92731); assay: Nuclear hormone receptor assay (Eurofins-CEREP); settings: read-out: Relative IC50
# T32 construct: Eurofins-CEREP
# hEGFR(E746-A750del) = biological target: T33, hEGFR(E746-A750del) (Homo sapiens, UniProt P00533, DEL746-750); assay: KINOMEscan; assay type: binding
# T33 construct: purchased DiscoverX
# hFGR = biological target: T34, hFGR (Homo sapiens, UniProt P09769); assay: KINOMEscan; assay type: binding
# T34 construct: purchased DiscoverX
# hDAPK2 = biological target: T35, hDAPK2 (Homo sapiens, UniProt Q9UIK4); assay: KINOMEscan; assay type: binding
# T35 construct: purchased DiscoverX (KINOMEscan platform)
# hRIPK1 = biological target: T36, hRIPK1 (Homo sapiens, UniProt Q13546); assay: KINOMEscan; assay type: binding
# T36 construct: purchased DiscoverX (KINOMEscan platform)
# hCSK = biological target: T37, hCSK (Homo sapiens, UniProt P41240); assay: KINOMEscan; assay type: binding
# T37 construct: purchased DiscoverX (KINOMEscan platform)
# hSRC = biological target: T38, hSRC (Homo sapiens, UniProt P12931); assay: KINOMEscan; assay type: binding
# T38 construct: purchased DiscoverX (KINOMEscan platform)
# T38 sequence (P12931 whole entry): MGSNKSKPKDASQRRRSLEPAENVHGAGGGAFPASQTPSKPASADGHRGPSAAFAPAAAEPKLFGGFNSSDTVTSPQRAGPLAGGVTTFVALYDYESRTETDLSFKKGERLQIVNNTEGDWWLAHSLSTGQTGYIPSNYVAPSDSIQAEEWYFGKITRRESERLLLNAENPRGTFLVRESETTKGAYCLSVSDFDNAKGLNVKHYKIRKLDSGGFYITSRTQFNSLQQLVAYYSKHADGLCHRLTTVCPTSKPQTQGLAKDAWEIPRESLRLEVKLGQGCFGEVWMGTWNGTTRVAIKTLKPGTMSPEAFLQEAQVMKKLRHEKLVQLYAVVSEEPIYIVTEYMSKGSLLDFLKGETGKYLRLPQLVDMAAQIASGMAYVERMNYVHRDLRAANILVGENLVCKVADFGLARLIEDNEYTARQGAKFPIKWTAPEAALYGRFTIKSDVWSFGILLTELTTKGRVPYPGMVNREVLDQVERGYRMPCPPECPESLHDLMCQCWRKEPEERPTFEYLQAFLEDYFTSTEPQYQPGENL
# T35 sequence (Q9UIK4 whole entry): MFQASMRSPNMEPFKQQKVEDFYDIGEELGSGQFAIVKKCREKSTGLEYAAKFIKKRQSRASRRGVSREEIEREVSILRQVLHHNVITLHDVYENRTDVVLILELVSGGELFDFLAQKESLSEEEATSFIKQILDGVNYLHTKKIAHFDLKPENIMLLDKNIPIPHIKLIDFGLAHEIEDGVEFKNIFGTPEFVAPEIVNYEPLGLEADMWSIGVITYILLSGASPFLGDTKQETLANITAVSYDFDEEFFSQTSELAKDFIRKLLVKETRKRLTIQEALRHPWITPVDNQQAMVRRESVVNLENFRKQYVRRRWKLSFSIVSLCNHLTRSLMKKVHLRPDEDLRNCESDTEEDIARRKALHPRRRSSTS
# T10 sequence (Q9H422 whole entry): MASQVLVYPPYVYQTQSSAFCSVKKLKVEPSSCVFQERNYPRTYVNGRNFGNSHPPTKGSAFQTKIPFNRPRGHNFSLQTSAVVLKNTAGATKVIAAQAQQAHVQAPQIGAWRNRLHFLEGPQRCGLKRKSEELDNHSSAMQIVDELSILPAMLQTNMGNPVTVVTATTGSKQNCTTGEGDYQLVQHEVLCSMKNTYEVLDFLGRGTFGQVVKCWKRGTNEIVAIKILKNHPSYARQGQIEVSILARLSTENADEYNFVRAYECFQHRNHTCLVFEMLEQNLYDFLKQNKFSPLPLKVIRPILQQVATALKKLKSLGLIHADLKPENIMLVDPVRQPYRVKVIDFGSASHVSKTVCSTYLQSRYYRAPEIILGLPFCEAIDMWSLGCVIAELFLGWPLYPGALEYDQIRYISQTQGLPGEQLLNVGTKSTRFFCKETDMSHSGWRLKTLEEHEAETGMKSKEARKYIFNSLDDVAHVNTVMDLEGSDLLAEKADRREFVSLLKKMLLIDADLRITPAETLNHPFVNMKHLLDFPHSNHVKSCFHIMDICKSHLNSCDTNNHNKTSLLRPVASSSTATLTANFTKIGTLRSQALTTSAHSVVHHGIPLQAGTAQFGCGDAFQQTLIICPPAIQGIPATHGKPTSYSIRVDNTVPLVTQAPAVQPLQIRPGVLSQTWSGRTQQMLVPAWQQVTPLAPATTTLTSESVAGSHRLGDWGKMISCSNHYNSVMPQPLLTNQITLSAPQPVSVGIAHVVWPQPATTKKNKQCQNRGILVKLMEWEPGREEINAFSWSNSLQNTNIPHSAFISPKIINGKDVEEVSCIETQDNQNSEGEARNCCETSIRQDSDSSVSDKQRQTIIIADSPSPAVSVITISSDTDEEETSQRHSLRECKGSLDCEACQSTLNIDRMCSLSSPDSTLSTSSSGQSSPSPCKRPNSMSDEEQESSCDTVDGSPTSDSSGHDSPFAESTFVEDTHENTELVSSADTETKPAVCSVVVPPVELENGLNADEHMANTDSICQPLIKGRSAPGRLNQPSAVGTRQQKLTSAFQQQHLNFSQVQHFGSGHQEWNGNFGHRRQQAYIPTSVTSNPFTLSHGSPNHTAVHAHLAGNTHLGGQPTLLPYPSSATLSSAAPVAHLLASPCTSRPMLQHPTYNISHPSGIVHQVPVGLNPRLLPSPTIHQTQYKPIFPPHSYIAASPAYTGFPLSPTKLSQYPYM
# T37 sequence (P41240 whole entry): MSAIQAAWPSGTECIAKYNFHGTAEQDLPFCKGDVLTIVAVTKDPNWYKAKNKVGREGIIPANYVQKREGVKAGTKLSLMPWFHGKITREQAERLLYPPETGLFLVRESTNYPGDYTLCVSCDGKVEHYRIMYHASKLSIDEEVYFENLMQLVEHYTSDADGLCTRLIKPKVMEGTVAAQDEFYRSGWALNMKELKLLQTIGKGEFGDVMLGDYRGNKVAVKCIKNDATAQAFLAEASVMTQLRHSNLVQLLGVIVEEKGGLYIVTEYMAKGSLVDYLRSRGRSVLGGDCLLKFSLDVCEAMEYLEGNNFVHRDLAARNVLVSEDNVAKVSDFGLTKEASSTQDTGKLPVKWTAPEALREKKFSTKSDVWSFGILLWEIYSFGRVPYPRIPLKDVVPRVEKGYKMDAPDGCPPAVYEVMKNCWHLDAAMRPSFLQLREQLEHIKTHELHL
# Sequence of hOPRm1 (P35372 whole entry): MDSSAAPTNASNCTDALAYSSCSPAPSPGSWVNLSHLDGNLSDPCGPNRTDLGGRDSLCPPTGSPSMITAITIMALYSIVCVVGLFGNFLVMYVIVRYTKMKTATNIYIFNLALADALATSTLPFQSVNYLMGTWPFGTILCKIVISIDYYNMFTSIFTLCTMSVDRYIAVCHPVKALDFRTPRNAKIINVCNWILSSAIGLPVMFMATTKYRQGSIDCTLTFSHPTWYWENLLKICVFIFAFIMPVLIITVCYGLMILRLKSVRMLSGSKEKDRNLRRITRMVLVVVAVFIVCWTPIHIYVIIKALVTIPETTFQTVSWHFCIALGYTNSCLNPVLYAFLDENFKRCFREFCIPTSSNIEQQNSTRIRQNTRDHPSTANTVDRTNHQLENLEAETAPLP
# T12 sequence (P53671 whole entry): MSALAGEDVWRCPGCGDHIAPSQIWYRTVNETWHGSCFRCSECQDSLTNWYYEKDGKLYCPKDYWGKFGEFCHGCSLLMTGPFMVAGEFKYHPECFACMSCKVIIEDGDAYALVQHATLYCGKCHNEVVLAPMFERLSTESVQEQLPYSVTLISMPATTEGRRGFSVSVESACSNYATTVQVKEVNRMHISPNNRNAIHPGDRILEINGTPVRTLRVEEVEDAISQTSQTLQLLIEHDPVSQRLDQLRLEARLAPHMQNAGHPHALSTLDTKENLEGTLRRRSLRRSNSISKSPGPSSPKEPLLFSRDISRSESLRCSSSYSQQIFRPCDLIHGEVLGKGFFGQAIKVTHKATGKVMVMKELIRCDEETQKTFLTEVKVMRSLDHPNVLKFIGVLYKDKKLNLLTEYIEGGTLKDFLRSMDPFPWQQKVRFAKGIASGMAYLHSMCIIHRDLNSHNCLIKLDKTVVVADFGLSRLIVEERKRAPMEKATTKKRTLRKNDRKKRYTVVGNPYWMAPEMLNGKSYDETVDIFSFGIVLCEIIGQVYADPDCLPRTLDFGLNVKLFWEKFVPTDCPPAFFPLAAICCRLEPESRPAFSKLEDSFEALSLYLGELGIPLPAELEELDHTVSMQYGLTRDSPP
# T9 sequence (Q9H0K1 whole entry): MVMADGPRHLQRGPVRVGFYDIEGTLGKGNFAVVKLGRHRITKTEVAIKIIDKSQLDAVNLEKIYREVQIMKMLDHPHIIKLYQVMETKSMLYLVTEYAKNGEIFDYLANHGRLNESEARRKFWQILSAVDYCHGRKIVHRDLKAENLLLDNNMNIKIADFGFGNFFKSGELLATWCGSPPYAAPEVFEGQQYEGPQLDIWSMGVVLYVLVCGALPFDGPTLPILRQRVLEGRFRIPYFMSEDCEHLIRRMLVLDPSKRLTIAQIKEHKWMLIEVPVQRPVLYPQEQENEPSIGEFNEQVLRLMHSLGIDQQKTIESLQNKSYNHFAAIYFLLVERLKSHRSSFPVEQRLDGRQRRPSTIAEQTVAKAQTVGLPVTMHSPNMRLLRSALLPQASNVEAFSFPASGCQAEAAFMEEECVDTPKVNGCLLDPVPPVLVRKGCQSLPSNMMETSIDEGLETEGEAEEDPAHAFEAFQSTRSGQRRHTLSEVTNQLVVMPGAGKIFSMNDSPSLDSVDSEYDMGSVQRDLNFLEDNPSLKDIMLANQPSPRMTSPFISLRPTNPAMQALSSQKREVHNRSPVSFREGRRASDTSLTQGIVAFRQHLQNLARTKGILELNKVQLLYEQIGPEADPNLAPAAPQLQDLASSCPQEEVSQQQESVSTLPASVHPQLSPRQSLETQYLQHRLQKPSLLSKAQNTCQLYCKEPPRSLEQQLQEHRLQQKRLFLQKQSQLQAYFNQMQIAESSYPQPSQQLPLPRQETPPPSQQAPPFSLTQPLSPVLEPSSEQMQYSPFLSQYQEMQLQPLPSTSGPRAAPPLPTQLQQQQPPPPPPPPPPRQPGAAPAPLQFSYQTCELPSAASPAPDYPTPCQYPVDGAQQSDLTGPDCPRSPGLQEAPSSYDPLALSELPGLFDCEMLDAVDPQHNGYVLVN
# T16 sequence (P29597 897-1176 limits assumed): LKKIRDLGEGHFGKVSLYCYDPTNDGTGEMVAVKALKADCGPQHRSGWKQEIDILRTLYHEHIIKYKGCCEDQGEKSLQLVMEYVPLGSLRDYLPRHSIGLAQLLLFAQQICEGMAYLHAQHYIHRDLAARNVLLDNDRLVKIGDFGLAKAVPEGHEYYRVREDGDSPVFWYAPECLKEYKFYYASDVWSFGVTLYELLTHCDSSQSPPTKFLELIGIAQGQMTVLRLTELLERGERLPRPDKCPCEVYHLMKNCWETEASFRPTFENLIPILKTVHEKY
compound,measurement,setting,value
"Cc1cn(CCN2CCN(c3ccccc3-c3cc(C#N)cc(C(=O)NCCCN4CCCC4)c3)CC2)c2ccccc12 [LLY-507, 3-cyano-5-{2-[4-[2-(3-methylindol-1-yl)ethyl]piperazin-1-yl]-phenyl}-N-[(3-pyrrolidin-1-yl)propyl]benzamide]",IC50,hKIT(L576P),> 20 µM
same,IC50,hSgK110,> 20 µM
same,IC50,hMARK2,> 20 µM
same,IC50,hKIT(A829P),> 20 µM
same,IC50,hCAMKK1,> 20 µM
same,IC50,hFLT3(D835Y),> 20 µM
same,"% Effect, Potentiation",hH1,-8.5%
same,IC50,hHPK1,> 20 µM
same,IC50,hLXRα,> 10 µM
same,IC50,hSIK2,> 20 µM
same,IC50,hHIPK3,> 20 µM
same,IC50,hTAOK1,> 20 µM
same,IC50,hLIMK2,> 20 µM
same,IC50,hCSNK1G1,> 20 µM
same,IC50,hCLK4,> 20 µM
same,inhibition at 20 µM,hCSF1R-autoinhib,< 50%
same,IC50,hTYK2(JH1Dom.-catalytic),> 20 µM
same,inhibition at 10 µM,hM3,-23.6%
same,IC50,[1],> 20 µM
same,IC50,hABL1(pF317I),> 20 µM
same,IC50,hIKK-beta,> 20 µM
same,IC50,hCDKL5,> 20 µM
same,"% Effect, Stimulation",hOPRm1,7.4%
same,IC50,hERK5,> 20 µM
same,IC50,hMKNK1,> 20 µM
same,IC50,hBTK,> 20 µM
same,IC50,hSGK,> 20 µM
same,IC50,hIGF1R,> 20 µM
same,IC50,hSIK,> 20 µM
same,IC50,hANKK1,> 20 µM
same,IC50,hMEK3,> 20 µM
same,IC50,hERK8,> 20 µM
same,IC50,hBRAF,> 20 µM
same,IC50,hBRSK2,> 20 µM
same,IC50,hERβ,> 10 µM
same,IC50,hEGFR(E746-A750del),> 20 µM
same,IC50,hFGR,> 20 µM
same,IC50,hDAPK2,> 20 µM
same,IC50,hRIPK1,> 20 µM
same,IC50,hCSK,> 20 µM
same,IC50,hSRC,> 20 µM
